The target in experiment [1] is T1, Pp-CI (flavin site; NDUFV1) (Komagataella pastoris, UniProt E1UWA7).
T1 construct: gene nubm; native mitochondrial complex I, 44 subunits, purified in LMNG, in cMSP26 nanodiscs or proteoliposomes; with NADH-ubiquinone oxidoreductase 24 kDa subunit, mitochondrial; NADH-ubiquinone oxidoreductase 75 kDa subunit, mitochondrial
T1 sequence (E1UWA7 17-473): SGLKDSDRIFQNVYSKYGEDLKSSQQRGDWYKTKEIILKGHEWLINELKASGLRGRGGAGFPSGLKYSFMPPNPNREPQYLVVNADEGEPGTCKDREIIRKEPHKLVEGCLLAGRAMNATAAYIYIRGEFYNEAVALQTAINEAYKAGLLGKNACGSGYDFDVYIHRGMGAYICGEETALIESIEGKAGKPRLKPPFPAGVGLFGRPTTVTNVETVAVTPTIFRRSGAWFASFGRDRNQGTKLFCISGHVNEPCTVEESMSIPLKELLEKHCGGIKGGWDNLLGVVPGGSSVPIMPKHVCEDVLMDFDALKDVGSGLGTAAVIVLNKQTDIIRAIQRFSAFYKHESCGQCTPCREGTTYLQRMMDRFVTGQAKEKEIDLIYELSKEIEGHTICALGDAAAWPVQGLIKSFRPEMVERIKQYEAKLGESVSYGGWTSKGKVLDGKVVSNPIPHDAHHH
Nature of the experiment: NADH:APAD+ oxidoreduction in proteoliposomes. In kind it is biochemical. The note with it: 500 μM APAD+, 100 μM NADH; pH 7.5, 32°C.

Experiment [2] concerns the target T1, Pp-CI (flavin site; NDUFV1). Description: cryo-EM structure. In kind it is binding. The note with it: state 1, closed, 2.8 Å.
For experiment [3] the target is unchanged. Nature of the experiment: NADH:APAD+ and NADH:O2 oxidoreduction, absorbance […]-380 nm. In kind it is biochemical. The note with it: 100 μM NADH with 500 μM APAD+ or 200 μM NADH with Q10/AOX; pH 7.5, 32°C.
For the next experiment, the target named is T2, NDUFA9 subunit of Pp-CI (Komagataella pastoris, UniProt E1UWA9).
T2 construct: gene nuem; supernumerary subunit within native 44-subunit mitochondrial complex I in cMSP26 nanodiscs
T2 sequence (E1UWA9 36-384): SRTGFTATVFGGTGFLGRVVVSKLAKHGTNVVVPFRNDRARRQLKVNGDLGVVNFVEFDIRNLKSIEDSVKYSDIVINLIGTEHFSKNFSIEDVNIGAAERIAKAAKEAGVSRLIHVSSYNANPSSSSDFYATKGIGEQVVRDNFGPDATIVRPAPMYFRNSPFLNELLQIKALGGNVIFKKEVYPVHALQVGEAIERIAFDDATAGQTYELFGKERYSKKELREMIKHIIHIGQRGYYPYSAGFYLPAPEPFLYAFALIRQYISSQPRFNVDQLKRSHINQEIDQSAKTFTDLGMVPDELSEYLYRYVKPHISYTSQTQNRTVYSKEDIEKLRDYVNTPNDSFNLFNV
Description: cryo-EM structure. In kind it is binding. The following applies: state 1, closed, 2.8 Å.

The target of another experiment is T3, Pp-CI (Q10-binding site) (Komagataella pastoris, UniProt E1UWA8+E1UWB5+E1UWC2).
T3 construct: gene nucm; native mitochondrial complex I, 44 subunits, purified in LMNG, in cMSP26 nanodiscs or proteoliposomes; with NADH-ubiquinone oxidoreductase 51 kDa subunit, mitochondrial; NADH-ubiquinone oxidoreductase 24 kDa subunit, mitochondrial
Nature of the experiment: NADH:O2 oxidoreduction with AOX, nanodiscs. In kind it is biochemical. The note with it: 200 μM NADH; Q10 in bilayer; pH 7.5, 32°C.

In experiment [4] the target is Pichia pastoris complex I (NADH:ubiquinone oxidoreductase), the 43 subunits other than NUQM, with the flavoprotein subcomplex (Pichia pastoris (endogenous in strain X-33)). Description: cryo-EM structure; Pp-CI purified in LMNG and reconstituted into cMSP26 nanodiscs with DOPC:DOPE:CDL and Q10, 10 mM Mops pH 7.5, 50 mM KCl; Titan Krios 300 kV; particles classified into four states (state 1 closed with NUQM 2.80 A; state 3 open without NUQM 3.34 A).

For experiment [5] the target is unchanged. Nature of the experiment: cryo-EM structure; Pp-CI reconstituted into proteoliposomes (Pp-CI-PLs), 10 mM Mops pH 7.5, 50 mM KCl; Talos Arctica 200 kV; focused 3D classification on NUQM and on the flavoprotein; NUQM-bound map 4.7 A.

With `CC(=O)c1ccc[n+]([C@@H]2O[C@H](COP(=O)(O)OP(=O)(O)OC[C@H]3O[C@@H](n4cnc5c(N)ncnc54)[C@H](O)[C@@H]3O)[C@@H](O)[C@H]2O)c1` [APAD^+], in experiment [1], the “NADH:APAD+ oxidoreduction in proteoliposomes” value is reported as “the consistent rates of the flavin-localized NADH:APAD^+ reaction”.

`Cc1cc2nc3c(=O)[nH]c(=O)nc-3n(C[C@H](O)[C@H](O)[C@H](O)COP(=O)(O)O)c2cc1C` [FMN]: the cryo-EM structure entry in experiment [2] is “canonical CI subunits that contain the FMN in the active site for NADH oxidation”.

As to `NC(=O)C1=CN([C@@H]2O[C@H](COP(=O)(O)OP(=O)(O)OC[C@H]3O[C@@H](n4cnc5c(N)ncnc54)[C@H](O)[C@@H]3O)[C@@H](O)[C@H]2O)C=CC1` [NADH], in experiment [3], the “NADH:APAD+ and NADH:O2 oxidoreduction, absorbance 340-380 nm” value is “the consistent rates of the flavin-localized NADH:APAD^+ reaction”.

As for `NC(=O)C1=CN([C@@H]2O[C@H](COP(=O)(O)OP(=O)(O)OC[C@H]3O[C@@H](n4cnc5c(N)ncnc54)[C@H](OP(=O)(O)O)[C@@H]3O)[C@@H](O)[C@H]2O)C=CC1` [NADPH], at NDUFA9 subunit of Pp-CI, the cryo-EM structure entry was “bound in NDUFA9”.

On to `COC1=C(OC)C(=O)C(C/C=C(\C)CC/C=C(\C)CC/C=C(\C)CC/C=C(\C)CC/C=C(\C)CC/C=C(\C)CC/C=C(\C)CC/C=C(\C)CC/C=C(\C)CCC=C(C)C)=C(C)C1=O` [Q10], for which the “NADH:O2 oxidoreduction with AOX, nanodiscs” value at Pp-CI (Q10-binding site) is listed as “confirming the rapid redox-cycling turnover of the Q10 contained in the ND bilayer”.

B1: NUQM, supernumerary interdomain bridge subunit of Pichia pastoris complex I (natural protein)
chain: ALATIRNDLKLNFRFKADVLEKNVIRSILAETKNLEIDNKDKDLDEFKLYDLLSKMIKQRQDSAAIYLKEGSPDRFRQTGWNELREVDYITKYLEALPVASAEEIEAKVEPIVQSVLEEEGELKSPKEIFSRIPWKVVNQDWQASEGAVKNTVLRLYNLYKTDA
In experiment [4], B1 showed a percent of flavoprotein-containing particles with NUQM bound of 68.1%. This molecule also gave a percent of outward-facing, flavoprotein-bound particles with NUQM bound in experiment [5] of 77%.
